# Results from US6784175B2, “Use of substituted 1-amino-5-phenylpentane-3-ol and/or 1-amino-6-phenylhexane-3-ol compounds as medicaments” (Gruenenthal GmbH, priority 2000, dated 2004).
# How the values were obtained:
# [1] = test system: (+)-MK801 binding site of the ionotropic NMDA receptor; experiment: (3H)-(+)-MK801 receptor bonding test on rat cerebral membrane homogenates; conditions: 1 nmol/l (3H)-(+)-MK801, rat brain membrane homogenate; for Percentage inhibition of (3H)-(+)-MK801 binding at 10 μM: 10 μmol/l compound, triple determinations; for Ki: calculated from IC50 by Cheng-Prusoff equation
# Method: Research to determine the NMDA antagonistic effect of each compound in general formula I was carried out on cerebral membrane homogenates (homogenate of rat brain without cerebellum, pons and medulla oblongata taken from male Wistar rats (Charles River, Sulzfeld, Germany)).
# For this purpose, after separating the cerebellum, pons and medulla oblongata, freshly prepared rat brains were macerated in 50 mmol/l of tris/HCl (pH 7.7) with a Polytron homogeniser (model PT3000, Kinematika AG, Littau, Switzerland) at 6000 revolutions per minute (rpm) for 1 minute with ice cooling and centrifuged for 15 minutes at 4° C. and 60,000 g. After decanting and discarding the supernatant, again placing in 50 mmol/l of tris/HCl (pH 7.7) and macerating the membrane pellet with a homogeniser at 2000 rpm for 1 minute, it was centrifuged again for 15 minutes at 4° C. and 60,000 g. The supernatant was again discarding and the membrane pellet homogenised (2000 rpm for 1 minute) in 50 mmol/l of tris/HCl (pH 7.7) and frozen in aliquots at −70° C.
# For the receptor bonding test, each aliquot was defrosted and then centrifuged for 15 minutes at 4° C. and 60,000 g. After decanting and discarding the supernatant, the membrane pellet was taken up with bonding test buffer and homogenised (2000 rpm for 1 minute). The bonding test buffer was 5 mmol/l tris/HCl (pH 7.7) supplemented with 30 μmol/l of glycine and 100 μmol/l of glutamic acid.
# 1 nmol/l of (^3H)-(+)-MK801 ((5R, 10S)-(+)-5-methyl-10,11-dihydro-5H-dibenzo(a,d)cycloheptane-5,10-imine was used as a radioactively marked ligand (NET-972, NEN, Cologne Germany). The proportion of unspecific bonding was determined in the presence of 10 μmol/l of non-radioactively marked (+)-MK801 (RBI/Sigma, Deisenhofen, Germany). In further batches, each of the compounds of general formula I were added in series of concentrations and the displacement of the radioactive ligand out of its specific bond to the NMDA receptor determined. All the batches were subjected to triple determinations. The batches were each incubated for 40 minutes at 25° C. in a water bath and then harvested for determination of the radioactive ligand bound to the cerebral membrane homogenate by means of filtration through glass-fibre filters (GF/B) (Whatman GF/B, Hassel, Munich, Germany). The radioactivity retained by the glass-fibre filter discs was measured in a β counter (Packard TRI-CARB Liquid Scintillation Analyser 2000CA, Packard Instrument, Meriden, Conn. 06450, USA) after adding a scintillator (“Ready Protein” scintillator, Beckmann Coulter GmhH, Krefeld, Germany).
# The percentage inhibition of the specific bonding of the ligand (^3H)-(+)-MK801 in the presence of 10 μmol/l of each compound of general formula I resulting from the triple batches is used as a measure of the affinity of the compound for the (+)-MK801 binding site of the ionotropic NMDA receptor. From batches with concentration series of these compounds of general formula I, the IC50 values (concentration of substituted compounds with 50% displacement of radioactive ligand out of its specific bond) were calculated in accordance with the law of mass action using non-linear regression. From these IC50 values, the Kj values were calculated in accordance with the Cheng-Prusoff equation (Y. Cheng, W. H. Prusoff, 1973, Biochem. Pharmacol., 22, pp 3099-3108).
SMILES,Percentage inhibition of (3H)-(+)-MK801 binding at 10 μM [1] [%],Ki [1] [µM],melting point [°C]
"CN(C)C(c1ccccc1Br)C1CCCCC1(O)CCc1ccccc1.Cl (stereo not drawn) [Example 3, 2-[(2-bromophenyl)dimethylaminomethyl]-1-phenethylcyclohexanol, hydrochloride]",91,1.7,162 to 165
"CN(C)C(c1ccccc1Cl)C1CCCCC1(O)CCc1ccc(F)cc1.Cl (stereo not drawn) [Example 9, 2-[(2-chlorophenyl)dimethylaminomethyl]-1-[2-(4-fluorophenyl)ethyl]cyclohexanol, hydrochloride]",67,3.8,170
"CN(C)C(c1ccccc1Cl)C1CCCCC1(O)CCc1ccccc1F.Cl (stereo not drawn) [Example 10, 2-[(2-chlorophenyl)dimethylaminomethyl]-1-[2-(2-fluorophenyl)ethyl]cyclohexanol, hydrochloride]",102,0.4,162 to 163
"Cc1ccccc1C(C1CCCCC1(O)CCc1ccccc1Cl)N1CCCC1.Cl (stereo not drawn) [Example 23, 1-[2-(2-chlorophenyl)ethyl]-2-(pyrrolidine-1-yl-o-tolylmethyl)cyclohexanol, hydrochloride]",101,0.4,155
